Experimental data published in patent US20230355622A1, “METHODS OF CHEMOVACCINATION AGAINST PLASMODIUM INFECTIONS” (Merck Sharp & Dohme LLC, priority 2020, published 2023).

What was measured:
PMIX = experiment: Cleavage of PMIX substrates RAP1 and ASP in parasite extracts; assay type: cell-based, P. falciparum
Procedure: To confirm that Example 1A was a dual inhibitor of PMIX and PMX function, the ability of this compound to inhibit cleavage of the known PMIX substrate Rhoptry Associated Protein 1 (RAPI) in parasite extracts was tested (Pino et al., 2017). RAP1 is a merozoite rhoptry protein that is localized to the parasitophorous vacuole after invasion and processed by both PMIX and SUB1 (Pino et al., 2017). […] RAP1 was not released into the parasite supernatant because it was deposited in the parasitophorous vacuole during the invasion process (Baldi, D., Andrews, K., Waller, R., Roos, D., Howard, R., Crabb, B. and Cowman, A. (2000)). RAP1 controls rhoptry targeting of RAP2 in the malaria parasite Plasmodium falciparum. Embo Journal 19, 2435-2443.

[1] = test system: PbmCherryLuci sporozoites; experiment: Immunity after chemovaccination with increasing numbers of sporozoites, BALB/c mice (FIG. 5-7); assay type: in vivo, Plasmodium berghei
Procedure: To investigate how many sporozoites are required to develop immunity, female BALB/c mice (n=3/group) were infected intravenously (i.v.) with increasing numbers of PbmCherryLuci sporozoites and cured with 2×100 mg/kg doses of Example 1A. Three months later, the chemovaccinated mice were challenged with 10 PbmCherryLuci infected mosquito bites. […] Twelve months later, the chemovaccinated mice were challenged with 10 PbmCherryLuci infected mosquito bites.

PMX = PMX (Plasmodium falciparum, UniProt Q8IAS0); settings: P. falciparum parasites incubated with compound; SERA5 120 kDa, processed by SUB1
PMX, sequence (Q8IAS0 222-573): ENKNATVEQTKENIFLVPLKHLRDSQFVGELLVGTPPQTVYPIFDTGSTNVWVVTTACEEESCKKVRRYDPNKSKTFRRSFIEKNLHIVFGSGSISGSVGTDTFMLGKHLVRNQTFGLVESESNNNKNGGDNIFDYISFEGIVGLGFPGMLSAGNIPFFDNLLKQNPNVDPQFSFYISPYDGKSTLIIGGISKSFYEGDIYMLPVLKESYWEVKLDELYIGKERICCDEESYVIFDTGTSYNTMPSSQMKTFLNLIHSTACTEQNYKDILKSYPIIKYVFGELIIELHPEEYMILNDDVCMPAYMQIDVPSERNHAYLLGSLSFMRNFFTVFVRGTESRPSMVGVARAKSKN
Excerpt: SERA5 is a 120 kDa protein required for merozoite egress and is processed by subtilisin-like protease subtilisin 1 (SUB1) to release a soluble polypeptide of approximately 50 kDa (Pino, P., Caldelari, R., Mukherjee, B., Vahokoski, J., Klages, N., Maco, B., et al. (2017). A multistage antimalarial targets the plasmepsins IX and X essential for invasion and egress. Science 358, 522-528). […] SERA5 was included as a control in all subsequent experiments as a proxy for PMX-mediated activation of SUB1.

[2] = test system: PbmCherryLuci sporozoites; experiment: Inhibition of liver to blood transition in C57BL/6 mice (FIG. 8); assay type: in vivo, Plasmodium berghei; settings: oral gavage during liver infection
Procedure: 40,000 PbmCherryLuci sporozoites (or the indicated number of sporozoites) were inoculated i.v. and compounds were administered by oral gavage at indicated time points during liver infection. Liver infection levels and egress of parasites from the liver were measured by bioluminescence signal from the parasites using an In Vivo Imaging System (IVIS, Perkin Elmer) at the peak of liver infection (52 hours post infection, hpi), during liver egress (55 hpi) as well as during the first round of blood infection (65 hpi). Initiation of blood infection was also measured by flow cytometry at 65 hpi using the mCherry reporter to determine the parasitemia of this first round of blood infection. These analyses allowed quantification of the efficacy of drug killing of parasites in the liver (52 hpi), preventing their egress from the liver (55 hpi) or preventing their successful infection of the blood (65 hpi). Mice were monitored by giemsa stained thin blood smears for the presence of parasites in the blood for 30 days post infection. If no blood infection was seen during the subsequent 30 days, mice were declared cured of malaria infection.
C57BL/6 mice were administered Example 1A or Example 75A as described in the general experimental procedure.

[3] = test system: PbmCherryLuci salivary gland sporozoites in HepG2 human hepatoma cells; experiment: In vitro infection assay: immune serum inhibition of sporozoite infection of HepG2 cells (FIG. 3); assay type: cell-based, Plasmodium berghei; settings: serum of five BALB/c mice immunised ten months prior, 1 in 20 dilution, 48 h, versus naive serum
Procedure: To initiate the in vitro infection assay, 30,000 HepG2 human hepatoma cells were seeded into a 96-well plate format the day before infection. The day of infection, freshly dissected PbmCherryLuci salivary gland sporozoites were incubated with a 1 in 20 dilution of either naïve BALB/c serum (from n=5 mice) or immune serum (from n=5 mice) in culture media and added to HepG2 wells in technical triplicate. Serum samples were not pooled, so the response from five individual mice was analysed independently. Forty-eight hours after infection the infected cells were fixed with 4% formaldehyde and imaged using an Opera Phenix High Content Imager (PerkinElmer). The number of parasites in each well was counted using the mCherry reporter expressed by these parasites, the average number of parasites between the technical triplicates averaged for each serum sample, and the average for each mouse presented.

PbmCherryLuci = experiment: Prime/boost immunisation of C57BL/6 mice with CD8 depletion before mosquito bite challenge (FIG. 4); assay type: in vivo, Plasmodium berghei; settings: C57BL/6, prime/boost with 2 x 100 mg/kg P.O., 10 mosquito bites ten weeks after boost
Procedure: In addition to these protective antibody responses, the contribution of CD8 T-cells to the mechanism of immune protection was tested. Female C57BL/6 mice were immunized using a prime/boost immunisation regimen. The first immunisation was with 40,000 PbmCherryLuci salivary gland sporozoites i.v. followed by two doses of Example 1A at 100 mg/kg P.O. (given at 36 and 48 hours post infection). The second immunisation (boost) was eight weeks later, this time with 20,000 PbmCherryLuci sporozoites but with Example IA treatment as for the prime immunisation. Ten weeks after the boost immunisation (eighteen weeks after the prime immunisation) the mice were injected with 150 μg of a CD8 depleting antibody, or an isotype control non-depleting antibody the day before the mice were challenged with the bites of 10 PbmCherryLuci infected mosquitoes for 15 minutes. Giemsa stained thin blood smears were analysed until 30 days after challenge for the presence of parasites in the blood and mice were considered to be protected from infection if no blood parasites were observed within the 30 days post […].

[4] = test system: P. falciparum salivary gland sporozoites; experiment: Chemoprophylaxis of humanised (FRG) mice infected with P. falciparum sporozoites (FIG. 10); assay type: in vivo; settings: FRG mouse with human hepatocytes, 300,000 sporozoites i.v.; four oral treatments 100 mg/kg at day 5, 5.5, 6, 6.5
Procedure: Four immunocompromised mice engrafted with human hepatocytes (FRG mice, Yecuris, OR, USA) were each infected intravenously with 300,000 freshly dissected P. falciparum salivary gland sporozoites. Three mice received no treatment, while one mouse received four oral treatments with 100 mg/kg Example 1A during P. falciparum liver stage development (at day 5, day 5.5, day 6 and day 6.5 post infection). […] On day 7 post infection all mice were bled, and the blood cultured under standard culture conditions at 4% hematocrit with 1% oxygen. Fresh hematocrit was added to the cultures each week to provide fresh host cells for infection, and cultures were analysed for the presence of blood parasites 2-3 times per week by inspection of Giemsa-stained thin blood smears.

CCC1(CC)CC(=O)N(C2CCOc3ccc(C(=O)N[C@H]4CC(C)(C)Oc5ccccc54)cc32)C(=N)N1 (stereo partly drawn) [Example 1A, 4-(4,4-diethyl-2-imino-6-oxotetrahydropyrimidin-1(2H)-yl)-N—((S)-2,2-dimethylchroman-4-yl)chroman-6-carboxamide]
RAP1 processing by PMIX and SUB1 (PMIX; treated parasites/merozoites, processed forms p82 and p69, unprocessed p87): only the unprocessed p87 form of RAP1 was present
Apical Sushi Protein (ASP) processing by PMIX (PMIX; treated parasites, p47 processed, p87 full-length): cleavage event was inhibited
mice with sterile protection from blood stage malaria infection ([1]; BALB/c n=3/group, immunized with 500 sporozoites i.v., 2x100 mg/kg, 3-month challenge, 10 mosquito bites): 1/3
sterile protection from blood stage malaria infection ([1]; challenge at 12 months (FIG. 7)): all mice showed sterile protection
mice that developed malaria symptoms but showed partial immunity ([1]; immunized with 500 sporozoites i.v., 2x100 mg/kg, 3-month challenge): 2/3
sterile protection from blood stage malaria infection ([1]; immunized with 1,000 sporozoites i.v., 2x100 mg/kg, 3-month challenge): showed sterile protection from blood stage malaria infection
sterile protection from blood stage malaria infection ([1]; immunized with 40,000 sporozoites i.v., 2x100 mg/kg, 3-month challenge): showed sterile protection from blood stage malaria infection
immunity on re-challenge ([1]; mice immune at 3 months, re-challenged at 6 and 12 months post initial immunization): completely immune
SERA5 processing (PMX): accumulation of unprocessed SERA5 at 120 kDa
infection of the blood [2]: completely prevented infection of the blood in all mice
inhibition of HepG2 infection by immune serum [3]: inhibition of infection using the serum from each of the five immunised mice
blood parasites after challenge (PbmCherryLuci; 150 μg CD8 depleting antibody): all had blood parasites 4 days after challenge
blood parasites after challenge (PbmCherryLuci; isotype control non-depleting antibody): negative for blood parasites throughout the 30-day observation period
blood parasites in culture of blood taken day 7 post infection [4]: remained negative for blood parasites over an eight-week observation period
